In publication PMC12444516, “Broad Substrate Specificity and High Catalytic Activity of Sphingomonadaceae PhoK-Type Phosphatases Implicated in Flame-Retardant Degradation” (ACS Omega, 2025):
Where two headings read alike, the source gives them in different places.

Legend:
St-PhoK [1] = system: T1, St-PhoK; type: biochemical, Sphingopyxis terrae; details: read-out: p-nitrophenyl phosphate (1) / K m
T1 construct: predicted Sec/SPI signal peptide; also printed Sp-PhoK

SmSRS2-PhoK [2] = system: T2, SmSRS2-PhoK; test: UV/vis, p-nitrophenol release at […] nm, initial rates; type: biochemical, Sphingomonas sp. SRS2; details: 50 mM Ches pH 9.0; read-out: p-nitrophenyl phosphate (1) / K m
T2 construct: predicted Sec/SPI signal peptide; from a smaller PhoK cluster outside the main Sphingomonadaceae cluster

SmTDK1-PhoK [3] = system: T3, SmTDK1-PhoK; type: biochemical, Sphingomonas sp. TDK1; details: read-out: p-nitrophenyl phosphate (1) / K m
T3 construct: synthetic codon-optimised gene in pET29a with native stop codon, untagged; E. coli BL21(DE3); ammonium sulfate, Resource Q flow-through, S200; predicted Sec/SPI signal peptide

Sb-PhoK [4] = system: T4, Sb-PhoK; type: biochemical, Sphingobium sp. TCM1; details: read-out: p-nitrophenyl phosphate (1) / K m
T4 construct: predicted Sec/SPI signal peptide; ~2 Zn per protein

No-PhoK [5] = system: T5, No-PhoK; type: biochemical, Novosphingobium sp. EMRT-2; details: read-out: p-nitrophenyl phosphate (1) / K m
T5 construct: predicted Sec/SPI signal peptide

Sb-PhoK [6] = details: read-out: phenyl phosphate (2) / K m
St-PhoK [7] = details: read-out: phenyl phosphate (2) / K m
No-PhoK [8] = details: read-out: phenyl phosphate (2) / K m
SmTDK1-PhoK [9] = details: read-out: phenyl phosphate (2) / K m
SmSRS2-PhoK [10] = system: T2, SmSRS2-PhoK; test: UV/vis, phenol release at […] nm, initial rates; type: biochemical, Sphingomonas sp. SRS2; details: 50 mM Ches pH 9.0; read-out: phenyl phosphate (2) / K m
purified protein [11] = substrate: O=P(O)(O)Oc1ccccc1; test: purified protein; type: biochemical, Sphingomonas sp.; details: 50 mM Ches pH 9.0
purified protein [12] = substrate: O=[N+]([O-])c1ccc(OP(=O)(O)O)cc1; test: purified protein; details: 50 mM Ches pH 9.0

O=[N+]([O-])c1ccc(OP(=O)(O)O)cc1 [compound 1, p-nitrophenyl phosphate]
Km (St-PhoK [1]): 78 ± 3 µM
Km (SmSRS2-PhoK [2]): 88 ± 4 µM
Km (SmTDK1-PhoK [3]): 450 ± 10 µM
Km (Sb-PhoK [4]): 69 ± 2 µM
Km (No-PhoK [5]): 153 ± 5 µM

O=P(O)(O)Oc1ccccc1 [compound 2, phenyl phosphate]
Km (Sb-PhoK [6]): 650 ± 30 µM
Km (St-PhoK [7]): 81 ± 5 µM
Km (No-PhoK [8]): 300 ± 20 µM
Km (SmTDK1-PhoK [9]): 600 ± 20 µM
Km (SmSRS2-PhoK [10]): 104 ± 5 µM

B1: Sm-PhoK (Sphingomonas sp.) (protein)
chain: QSPAPAAAPAPAARSIAATPPKLIVAISVDQFSADLFSEYRQYYTGGLKRLTSEGAVFPRGYQSHAATETCPGHSTILTGSRPSRTGIIANNWFDLDAKREDKNLYCAEDESQPGSSSDKYEASPLHLKVPTLGGRMKAANPATRVVSVAGKDRAAIMMGGATADQVWWLGGPQGYVSYKGVAPTPLVTQVNQAFAQRLAQPNPGFELPAQCVSKDFPVQAGNRTVGTGRFARDAGDYKGFRISPEQDAMTLAFAAAAIENMQLGKQAQTDIISIGLSATDYVGHTFGTEGTESCIQVDRLDTELGAFFDKLDKDGIDYVVVLTADHGGHDLPERHRMNAMPMEQRVDMALTPKALNATIAEKAGLPGKKVIWSDGPSGDIYYDKGLTAAQRARVETEALKYLRAHPQVQTVFTKAEIAATPSPSGPPESWSLIQEARASFYPSRSGDLLLLLKPRVMSIPEQAVMGSVATHGSPWDTDRRVPILFWRKGMQHFEQPLGVETVDILPSLAALIKLPVPKDQIDGRCLDLVAGKDDSCAGQ
notes: predicted Sec/SPI signal peptide; binuclear Zn site, nucleophile T89
Km (purified protein [11]): 600 ± 20 µM
kcat (purified protein [11]): 1100 ± 10 s⁻¹
kcat/Km (purified protein [11]): 1.84e+06 ± 60000 M⁻¹ s⁻¹
Km (purified protein [12]): 174 ± 4 µM
